{"source": "patent US11129782B2", "about": "“Derivatives of PPD useful for coloring hair and skin” (National University of Singapore, priority 2017, dated 2021)", "key": {"[1]": {"system": "ILT3", "assay": "ILT3 surface expression on THP-1 by flow cytometry", "type": "cell-based, human", "conditions": "in comparison to DCNB", "method": "(§1) For cytokine profiling in THP-1, supernatants from wells were collected and then used for cytokine analysis by a Chemokine immunosorbent assay Bio-legend ELISA Max kit. The levels of available IL-8 protein from THP-1 cell supernatants was estimated using this kit which are regulated upon activation of THP-1 model. Surface receptor expression of human CD-86, CD-54, MHC-I and IL-T3 were analyzed by flow cytometry using standard BD FACS analyzer with PE and FITC fluorescent labeled antibodies from Biolegend and e Bioscience.\n(§2) In order to understand the effect of modified PPD hairdyes on THP-1 immune sensitization, a certain degree of Cytotoxicity at CV75% viable where 25% cell death is required before evaluation of supernatants in THP-1 models for expression of cytokine IL-8 and receptor expression of CD86, CD54, MHC-I and IL-T3 surface receptors upon treatment with standard PPD and modified hair dye compounds. Most allergens show a specific dose-dependent alteration of CD86 and/or CD54 expression or secretion of cytokine profiles. But depending on chemical, the alteration pattern may vary."}, "[2]": {"assay": "Skin permeation in vertical Franz diffusion cells", "type": "in vitro ADME, porcine", "conditions": "8 h; for Penetration profile PPD vs derivatives (times less than PPD): ratio of PPD penetration to that of the compound", "method": "Porcine ears were generously provided by the NUS Department of Surgery. The ears were frozen at −80° C. until use (up to 3 months) and thawed at room temperature on the day preceding the experiment. Prior to the experiment, the skin was separated from the cartilage and dermatomed to a thickness of ˜1.0 mm using an Acculan™ 3Ti dermatome (Aesculap, Inc., B. Braun, USA).\nThe PPD and derivatives were dissolved in deionized water at 1% w/v. The PPD and PPD derivatives 1-5 solutions were purged with argon gas to minimize oxidation of the donor solution.\nSkin penetration studies were carried out using vertical Franz diffusion cells (PermeGear, USA) immersed in a 37° C. water bath. The donor and receptor volumes were 900 µL and 5 mL, respectively; the mean surface area of penetration was 0.64 cm^2. Upon insertion of the skin pieces into the Franz cells, the skin was equilibrated for 45 min with PBS in the receptor compartment. After equilibration, the skin's trans-epidermal water loss (TEWL) was measured using an Aquaflux AF300 (Biox, UK) to assess the integrity of the skin's stratum corneum barrier. The donor solution, consisting of PPD or derivative 1-5 (n=3 Franz cells each), was then added to the donor compartment and the penetration experiments were conducted for 8 h. The receptor solutions were continuously stirred with magnetic stirrers. At fixed time points, aliquots of 200 μL were taken from the receptor solution of each cell and the receptor solution topped up with 200 μL of fresh PBS. At the end of the experiment, the donor and receptor solutions were removed and the cells dismantled. For the purpose of mass balance on the PPD, PPD derivatives 1-5 the skin pieces and swabs of their outer surfaces were collected and stored in acetonitrile for PPD or derivative 1-5 extraction. The donor solution as well as PBS used to thoroughly wash each part of the Franz cells were also collected.\nPPD, PPD derivatives 1-5 and metabolite concentrations in all permeation and mass balance samples were measured by LCMS. PPD steady state fluxes and permeability coefficients were calculated by fitting the solution to Fick's second law of diffusion at the steady state to the linear part of each experimental cumulative amount curve.\nThe validated method LCMS was applied to quantify PPD, PPD derivative 1-5 and metabolites from skin permeation study samples. FIGS. 3 and 4 show LCMS spectra for the identification of PPD and PPD derivatives 1 and 2 and metabolites from skin permeation study experiment."}, "[3]": {"system": "HaCaT cells", "assay": "In vitro cell cytotoxicity (MTT) assay on HaCaT cells", "type": "cell-based, human", "conditions": "for IC50: 72 h incubation, MTT", "from_the_text": "HaCaT (human, adult, low calcium, high temperature, human adult skin keratinocytes) cells were obtained from the IMB (Institute of Medical Biology) Skin Cell Bank. Fetal bovine serum (FBS), Dulbecco's minimum essential medium (DMEM) and trypsin EDTA solution were purchased from GE healthcare life sciences, Utah. Penicillin/streptomycin, dimethyl sulfoxide (DMSO), and phosphate buffered saline (PBS) were from Fisher Scientific (Singapore). Para-phenylenediamine (PPD) was purchased from Sigma Aldrich (Singapore). PPD analogues such as Dimer, trimer, ethyl hexyl para-phenylenediamine (EHPPD), hexyl para-phenylenediamine (HPPD), Bandrowski base (BB) were synthesized in house.\nCell viability was essentially determined using the MTT assay as described in the literature. The HaCaT cells were grown in DMEM with 10% FBS and 1% penicillin/streptomycin. The cells in T-75 cm^2 culture flasks were incubated with 5% CO2 at 37° C. in a humidified incubator. The HaCaT cells were grown to expected confluency and then they were harvested by trypsinizing the cell with 0.25% trypsin/EDTA and incubated at 37° C. for 5 min to obtain the complete cell detachment. After the incubation, cell pellets were resuspended, and washed twice with 1×PBS. The cell suspension in 1×PBS was counted and adjusted to 1×10^5/mL. A HaCaT keratinocyte suspension (100 μL in 1×PBS) with a cell concentration of 1×10^5 cells/mL) and a test solution (100 μL in milli-Q water) were combined in each well of two 96-well plates. Test solutions with a desired concentration were prepared by serial dilutions of the stock solutions with 1×PBS.\nFor the cytotoxicity experiment, cells were seeded at a density of 5×10^3 in 200 ul of medium into each well of 96-well plates. Cells were seeded as three sets of four replicates for each concentration. After 24 h of incubation, the cells were washed with PBS and cultured for 72 h with 200 ul of 10% FBS containing DMEM medium, together with the different concentrations of the test compounds ranging from 500 μM to 1.9 μM for PPD and analogues 1-5 and standard in a serial dilution. Then the medium was removed and 100 μl of MTT [3-(4,5-dimethylthiazol-2yl)-2,5-diphenyl-2H-tetrazolium bromide](1 mg/ml) (Alfa Aesar, Singapore) in PBS was added. At the end of 4 h incubation, the plates were removed from the incubator and plates were shaken for 5 min. The absorbance at 570 nm was determined using Bio-Tek plate reader. The cell viability rates were calculated from absorbance readings and represented as percentages of control value (untreated cells)."}, "[4]": {"system": "cysteine and lysine peptides", "assay": "Direct Peptide Reactivity Assay, mean of cysteine and lysine depletion (FIG. 12)", "conditions": "for Sensitizing potential predicted from mean peptide depletion: cysteine 1:10 / lysine 1:50 model"}, "[5]": {"system": "IL-8", "assay": "IL-8 ELISA on THP-1 cell supernatants", "type": "cell-based, human", "conditions": "preliminary ELISA, CV75", "method": "as §1, §2"}, "[6]": {"system": "cysteine peptide (Ac-RFAACAA-COOH)", "assay": "Direct Peptide Reactivity Assay, cysteine peptide", "conditions": "for % of Cysteine depletion, Avg / % of Cysteine depletion, Rep 2 / % of Cysteine depletion, Rep 3 / Reactivity Class: 1:10; for % of Cysteine depletion, Rep 1: peptide 0.02 mM : test chemical 0.2 mM (1:10); for Reactivity Class: cysteine", "method": "For cysteine DPRA, an additional step was performed.\n(§3) The mass spectrometric analysis was performed by use of a AB SCIEX QTRAP 5500 tandem mass spectrometry (MS/MS) system (AB SCIEX, Framingham, Mass., USA) operating in triple quadrupole positive mode (ESI+) equipped with an AB Sciex Turbo Ion Spray interface. Acquisition and analysis of data were performed with Analyst software ver. 1.6.2 (Applied Biosystems)."}, "[7]": {"system": "lysine peptide (Ac-RFAAKAA-COOH)", "assay": "Direct Peptide Reactivity Assay, lysine peptide", "conditions": "for % of Lysine depletion, Avg / % of Lysine depletion, Rep 2 / % of Lysine depletion, Rep 3 / Reactivity Class: 1:50; for % of Lysine depletion, Rep 1: peptide 0.02 mM : test chemical 1 mM (1:50); for Reactivity Class: lysine", "method": "as §3"}}, "note": "Where “and” joins values, the source holds several entries; their conditions need not be identical. Equal values may be shown once.", "data": [{"compound": "COCc1cc(N)ccc1N", "note": "[MEPPD, 2-(methoxymethyl)benzene-1,4,-diamine, reference compound]", "values": [{"measurement": "ILT3 (inhibitory receptor) expression", "setting": "[1]", "value": "increased"}, {"measurement": "% Parent compound Penetrated (mean)", "setting": "[2]; 1% W/V applied", "value": 0.02, "unit": "%"}, {"measurement": "% Parent compound Recovery (mean)", "setting": "[2]; 1% W/V applied", "value": 95.39, "unit": "%"}, {"measurement": "% converted to metabolite (mean)", "setting": "[2]; 1% W/V applied", "value": 0.019, "unit": "%"}, {"measurement": "Penetration profile PPD vs derivatives (times less than PPD)", "setting": "[2]", "value": "8 and 8.1"}, {"measurement": "Penetration profile PPD vs derivatives (times less than PPD)", "setting": "[2]; listed as ME-PPD", "value": "about 7.5"}, {"measurement": "Fold increase in IC50 compared to PPD", "setting": "[3]", "value": 19, "unit": "fold"}, {"measurement": "IC50", "setting": "[3]", "value": 544, "unit": "µM"}, {"measurement": "Sensitizing potential predicted from mean peptide depletion", "setting": "[4]", "value": "strong sensitizer"}, {"measurement": "Mean peptide depletion", "setting": "[4]; mean of cysteine (1:10) and lysine (1:50), FIG. 12", "value": 53.2, "unit": "%"}, {"measurement": "IL-8 expression", "setting": "[5]", "value": "increased expression"}]}, {"compound": "Nc1ccc(Nc2ccc(Nc3ccc(N)cc3)cc2)cc1", "note": "[PPD derivative 2, N^1,N^4-bis(4-aminophenyl)-1,4-benzenediamine]", "values": [{"measurement": "ILT3 (inhibitory receptor) expression", "setting": "[1]", "value": "increased"}, {"measurement": "% Parent compound Penetrated (mean)", "setting": "[2]; 1% W/V applied", "value": 0.00173, "unit": "%"}, {"measurement": "% converted to metabolite (mean)", "setting": "[2]; 1% W/V applied", "value": 0.008, "unit": "%"}, {"measurement": "recovery at 8 h, 1 % w/v", "setting": "[2]; pig, 1% W/V applied, read-out: % Parent compound Recovery (mean)", "value": 96.4, "unit": "%"}, {"measurement": "Penetration profile PPD vs derivatives (times less than PPD)", "setting": "[2]; listed as PPD 2", "value": "93 and 93.6"}, {"measurement": "Fold increase in cytotoxicity compared to PPD 1", "setting": "[3]", "value": 6, "unit": "fold"}, {"measurement": "IC50", "setting": "[3]; Homo sapiens, HaCaT, 72 h", "value": 4.14, "unit": "µM"}, {"measurement": "Sensitizing potential predicted from mean peptide depletion", "setting": "[4]", "value": "high sensitizing agents"}, {"measurement": "% of Cysteine depletion, Avg", "setting": "[6]; 20 min", "value": 54.0, "unit": "%"}, {"measurement": "% of Cysteine depletion, Rep 2", "setting": "[6]; 20 min", "value": 53.6, "unit": "%"}, {"measurement": "% of Cysteine depletion, Rep 3", "setting": "[6]; 20 min", "value": 52.6, "unit": "%"}, {"measurement": "% of Cysteine depletion, Rep 1", "setting": "[6]; 20 min", "value": 55.6, "unit": "%"}, {"measurement": "% of Cysteine depletion, Avg", "setting": "[6]; 24 h", "value": 64.1, "unit": "%"}, {"measurement": "% of Cysteine depletion, Rep 2", "setting": "[6]; 24 h", "value": 65.6, "unit": "%"}, {"measurement": "% of Cysteine depletion, Rep 3", "setting": "[6]; 24 h", "value": 61.2, "unit": "%"}, {"measurement": "% of Cysteine depletion, Rep 1", "setting": "[6]; 24 h", "value": 65.6, "unit": "%"}, {"measurement": "Reactivity Class", "setting": "[6]; 20 min", "value": "High"}, {"measurement": "Reactivity Class", "setting": "[6]; 24 h", "value": "High"}, {"measurement": "% of Lysine depletion, Avg", "setting": "[7]; 20 min", "value": 11.2, "unit": "%"}, {"measurement": "% of Lysine depletion, Rep 2", "setting": "[7]; 20 min", "value": 11.8, "unit": "%"}, {"measurement": "% of Lysine depletion, Rep 3", "setting": "[7]; 20 min", "value": 11.8, "unit": "%"}, {"measurement": "% of Lysine depletion, Rep 1", "setting": "[7]; 20 min", "value": 10.1, "unit": "%"}, {"measurement": "% of Lysine depletion, Avg", "setting": "[7]; 24 h", "value": 9.08, "unit": "%"}, {"measurement": "% of Lysine depletion, Rep 2", "setting": "[7]; 24 h", "value": 9.79, "unit": "%"}, {"measurement": "% of Lysine depletion, Rep 3", "setting": "[7]; 24 h", "value": 8.28, "unit": "%"}, {"measurement": "% of Lysine depletion, Rep 1", "setting": "[7]; 24 h", "value": 8.97, "unit": "%"}, {"measurement": "Reactivity Class", "setting": "[7]; 20 min", "value": "Low"}, {"measurement": "Reactivity Class", "setting": "[7]; 24 h", "value": "Low"}]}]}
